The test system of one data set is mouse L1210 leukemia. As to conditions: literature; cited from earlier work.
The conditions of data set [1]: literature; cited from earlier work.
The next data set concerns dihydrofolate reductase. The conditions noted are these: literature; cited from earlier work.
Data set [2] relates to human leukemia cell line (CCRF-CEM). The data set is described as follows: IC50 determined in whole cell human leukemia cell line (CCRF-CEM). The format is cell-based. An excerpt:
Representative IC50 values determined in whole cell human leukemia cell line (CCRF-CEM) are as follows: […]

The next data set has as its system 6C3HED lymphosarcoma. The data set is described as follows: 6C3HED lymphosarcoma in mice. The class given is in vivo.
The subject of data set [3] is C3H mammary adenocarcinoma. The data set is described as follows: C3H mammary adenocarcinoma implanted in mice, intraperitoneal treatment for five days. The class given is in vivo. As to conditions: intraperitoneally for five days. How it is done: At a dosage of 100 mg/kg, 80% inhibition was observed.

In brackets after ≈: the same amount, converted by molar mass.

As to `Nc1nc(N)c2cc(CCc3ccc(C(=O)N[C@@H](CCC(=O)O)C(=O)O)cc3)ccc2n1` [5,8,10-trideazaaminopterin], in the data set with mouse L1210 leukemia, the “activity against mouse L1210 leukemia” value is “exhibits activity”.

For `Nc1nc2ccc(CCc3ccc(C(=O)N[C@@H](CCC(=O)O)C(=O)O)cc3)cc2c(=O)[nH]1` [5,8,10-trideazafolic acid], the “activity against mouse L1210 leukemia” value in the data set on mouse L1210 leukemia is “only marginal activity”.

In the case of `Nc1nc2ncc(CNc3ccc(C(=O)N[C@@H](CCC(=O)O)C(=O)O)cc3)cc2c(=O)[nH]1` [5-Deazafolic acid], the cytotoxicity result in data set [1] is reported as “only weakly cytotoxic”.

With `Nc1nc(N)c2nc(CCc3ccc(C(=O)N[C@@H](CCC(=O)O)C(=O)O)cc3)ccc2n1` [8,10-Dideazaaminopterin], in data set [1], the antimetabolic activity result is “active”.

Take `Nc1nc2ccc(CCc3ccc(C(=O)N[C@@H](CCC(=O)O)C(=O)O)cc3)nc2c(=O)[nH]1` [8,10-Dideazafolic acid]: in the data set with dihydrofolate reductase, the dihydrofolate reductase inhibition result was “only marginally effective”.

Consider `Nc1nc(N)c2nc(CCc3ccc(C(=O)N[C@@H](CCC(=O)O)C(=O)O)cc3)cnc2n1` [10-Deazaaminopterin], for which, in data set [1], the antimetabolic activity result is recorded as “highly active”.

Regarding `Nc1nc2ncc(CCc3ccc(C(=O)N[C@@H](CCC(=O)O)C(=O)O)cc3)nc2c(=O)[nH]1` [10-deazafolic acid], the antimetabolic activity entry in data set [1] is “no significant activity”.

As a reminder, the IC50 is the concentration that gives 50% inhibition. Read a low IC50 as inhibition by little substance. Consider `Nc1nc(O)c2c(n1)NCC(CCc1cccc(C(=O)N[C@@H](CCC(=O)O)C(=O)O)c1)C2` (stereo partly drawn) [A, N-(3-[2-(2amino-4-hydroxy-5,6,7,8-tetrahydropyrido[2,3-d]pyrimidin-6-yl)ethyl]benzoyl)-L-glutamic acid], for which the 50% inhibitory concentration (IC50) in data set [2] turned out to be 0.015 µg/mL (≈ 0.0338 µM).

Turning to `CN(Cc1cnc2nc(N)nc(N)c2n1)c1ccc(C(=O)N[C@@H](CCC(=O)O)C(=O)O)cc1` [Amethopterin, 10-methylaminopterin], in the data set on dihydrofolate reductase, the dihydrofolate reductase inhibition entry is given as “inhibits dihydrofolate reductase”.

The term inhibition denotes how much of the control response was suppressed. With `Nc1nc(O)c2c(n1)NCC(CCc1ccc(C(=O)N[C@@H](CCC(=O)O)C(=O)O)c(F)c1)C2` (stereo partly drawn) [Compound H, N-(2-fluoro-4-[2-(2-amino-4-hydroxy-5,6,7,8-tetrahydropyrido[2,3-d]pyrimidin-6-yl)ethyl]benzoyl)-L-glutamic acid], the “% INHIBITION” value in the data set with 6C3HED lymphosarcoma (dose 25 (MK/KG)) turned out to be 94%; with 6C3HED lymphosarcoma (dose 50 (MK/KG)) it was 95%; with 6C3HED lymphosarcoma (dose 100 (MK/KG)), 100%; with 6C3HED lymphosarcoma (dose 200 (MK/KG)) it was 100%. Further, the TOXIC/TOTAL is listed as 0/9 in the data set with 6C3HED lymphosarcoma (dose 25 (MK/KG)), 0/10 in the data set with 6C3HED lymphosarcoma (dose 50 (MK/KG)), 0/10 with 6C3HED lymphosarcoma (dose 100 (MK/KG)) and 0/10 with 6C3HED lymphosarcoma (dose 200 (MK/KG)). This compound registered an IC50 in data set [2] of 0.004 µg/mL (≈ 0.00867 µM). Also, the toxicity result in data set [3] (30 mg/kg and 100 mg/kg) is reported as “No toxicity was observed”. For the same compound, the values for the inhibition in data set [3] (30 mg/kg) and in data set [3] (100 mg/kg) were 72% and 80%, respectively.

Consider `Nc1nc(O)c2c(n1)NCC(CCc1ccc(F)c(C(=O)N[C@@H](CCC(=O)O)C(=O)O)c1)C2` (stereo partly drawn) [D, N-(2-fluoro-5-[2-(2-amino-4-hydroxy-5,6,7,8-tetrahydropyrido[2,3-d]pyrimidin-6-yl)ethyl]benzoyl)-L-glutamic acid], for which the half-maximal inhibitory concentration (IC50) in data set [2] worked out at 0.1 µg/mL (≈ 0.217 µM).

As for `Nc1nc(O)c2c(n1)NCC(CCc1ccc(C(=O)N[C@@H](CCC(=O)O)C(=O)O)c(Cl)c1)C2` (stereo partly drawn) [F, N-(2-chloro-4-[2-(2-amino-4-hydroxy-5,6,7,8-tetrahydropyrido[2,3-d]pyrimidin-6-yl)ethyl]benzoyl)-L-glutamic acid], the midpoint of inhibition in data set [2], the IC50, lay at 0.027 µg/mL (≈ 0.0565 µM).
